Here are results for 24 compounds from patent US10214512B2, “Factor XIA inhibitors” (MERCK SHARP & DOHME CORP., priority 2015, dated 2019).

Assay [1] concerns the target purified human Factor XIa (Homo sapiens (Human), UniProt P03951). Put plainly: Factor XIa Assay. The format is biochemical. The note with it: purified human Factor XIa 40 pM; substrate Z-Gly-Pro-Arg-AFC 100 μM; 50 mM HEPES pH 7.4; read-out: Human FXIa Ki. The protocol:
(§1) The effectiveness of a compound of the present invention as an inhibitor of Coagulation Factor XIa can be determined using a relevant purified serine protease, and an appropriate synthetic substrate. The rate of hydrolysis of the chromogenic or fluorogenic substrate by the relevant serine protease was measured both in the absence and presence of compounds of the present invention. Assays were conducted at rt or at 37° C. […] A decrease in the rate of fluorescence change in the presence of inhibitor is indicative of enzyme inhibition. Such methods are known to one skilled in the art. The results of this assay are expressed as the inhibitory constant, Ki.
Factor XIa determinations were made in 50 mM HEPES buffer at pH 7.4 containing 150 mM NaCl, 5 mM CaCl2, and 0.1% PEG 8000 (polyethylene glycol; JT Baker or Fisher Scientific). Determinations were made using purified human Factor XIa at a final concentration of 40 pM (Sekisui Diagnostics) and he synthetic substrate, Z-Gly-Pro-Arg-AFC, TFA salt (Sigma #C0980) at a concentration of 100 μM.
Times required to achieve equilibration between enzyme and inhibitor were determined in control experiments. Initial velocities of product formation in the absence (Vo) or presence of inhibitor (Vi) were measured. Assuming competitive inhibition, and that unity is negligible compared Km/[S], [I]/e, and [I]/e (where [S], [I], and e respectively represent the total concentrations, of substrate, inhibitor and enzyme), the equilibrium constant (Ki) for dissociation of the inhibitor from the enzyme can be obtained from the dependence of Vo/Vi on [I] shown in the following equation.

Assay [2] deals with purified Human plasma Kallikrein (Homo sapiens (Human), UniProt P03952). In words: Kallikrein Assay. The format is biochemical. Particulars: purified Human plasma Kallikrein 0.5 nM; substrate Acetyl-K-P-R-AFC; 50 mM HEPES pH 7.4; Ki from IC50 by Cheng Prusoff. Here is the method:
as §1, with “Kallikrein” for “Coagulation Factor XIa”
Kallikrein determinations were made in 50 mM HEPES buffer at pH 7.4 containing 150 mM NaCl, 5 mM CaCl2, and 0.1% PEG 8000 (polyethylene glycol; Fisher Scientific). Determinations were made using purified Human plasma Kallikrein at a final concentration of 0.5 nM (Enzyme Research Laboratories) and the synthetic substrate, Acetyl-K-P-R-AFC (Sigma # C6608) at a concentration of […].
Times required to achieve equilibration between enzyme and inhibitor were determined in control experiments. […] IC50 was determined by inflection point from a four parameter logistic curve fit. Ki was calculated using the Cheng Prusoff equation, Ki=IC50/(1+([S]/Km)).

Sequence of purified Human plasma Kallikrein (P03952 391-638): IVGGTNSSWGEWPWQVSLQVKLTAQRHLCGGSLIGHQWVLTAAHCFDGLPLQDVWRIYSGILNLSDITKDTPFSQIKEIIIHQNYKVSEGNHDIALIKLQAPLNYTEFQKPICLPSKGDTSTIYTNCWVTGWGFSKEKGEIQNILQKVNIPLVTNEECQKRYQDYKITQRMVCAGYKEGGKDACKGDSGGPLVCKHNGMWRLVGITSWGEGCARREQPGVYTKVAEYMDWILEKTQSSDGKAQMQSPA
Sequence of purified Human plasma Kallikrein (P03952 20-390 partner): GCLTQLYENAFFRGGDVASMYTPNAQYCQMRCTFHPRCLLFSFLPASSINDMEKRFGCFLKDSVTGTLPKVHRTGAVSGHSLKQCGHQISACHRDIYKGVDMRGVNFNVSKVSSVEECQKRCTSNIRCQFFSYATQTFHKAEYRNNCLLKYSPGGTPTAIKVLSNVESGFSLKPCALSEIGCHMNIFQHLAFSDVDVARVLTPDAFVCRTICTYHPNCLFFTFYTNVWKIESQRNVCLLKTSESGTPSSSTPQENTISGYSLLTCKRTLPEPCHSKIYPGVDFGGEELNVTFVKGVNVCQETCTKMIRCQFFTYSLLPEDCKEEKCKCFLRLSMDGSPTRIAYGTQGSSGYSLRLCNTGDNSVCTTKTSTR
Sequence of purified human Factor XIa (P03951 388-625): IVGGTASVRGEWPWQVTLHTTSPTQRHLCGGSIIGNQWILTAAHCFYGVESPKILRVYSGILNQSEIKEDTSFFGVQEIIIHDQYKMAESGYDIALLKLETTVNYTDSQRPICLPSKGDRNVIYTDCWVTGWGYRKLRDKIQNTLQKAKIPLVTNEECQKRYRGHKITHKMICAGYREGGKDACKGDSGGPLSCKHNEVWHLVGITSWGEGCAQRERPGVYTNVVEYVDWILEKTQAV
Sequence of purified human Factor XIa (P03951 19-387 partner): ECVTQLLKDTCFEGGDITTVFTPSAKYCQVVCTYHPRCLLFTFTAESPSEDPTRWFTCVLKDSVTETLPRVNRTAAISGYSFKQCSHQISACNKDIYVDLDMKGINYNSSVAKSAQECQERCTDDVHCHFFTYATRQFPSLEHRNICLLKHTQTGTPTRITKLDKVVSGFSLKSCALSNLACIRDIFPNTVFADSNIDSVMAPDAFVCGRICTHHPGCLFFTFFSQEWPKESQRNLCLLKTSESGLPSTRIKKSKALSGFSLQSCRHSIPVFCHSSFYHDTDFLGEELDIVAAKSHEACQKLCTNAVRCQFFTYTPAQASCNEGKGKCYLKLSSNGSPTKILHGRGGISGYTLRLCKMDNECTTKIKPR

As a reminder, the Ki is a dissociation constant, usually derived from enzyme kinetics or from competition with a known ligand. Regarding `COC(=O)Nc1ccc2c(c1)NC(=O)CCCCC(c1ccc(-c3cc(Cl)ccc3OC(F)(F)F)c[n+]1[O-])c1nc-2c[nH]1` (single isomer, unassigned) [Example 99-a, (Z)-5-(5-chloro-2-(trifluoromethoxy)phenyl)-2-(2^4-((methoxycarbonyl)amino)-4-oxo-1^1H-3-aza-1(4,2)-imidazola-2(1,2) -benzenacyclononaphane-9-yl)pyridine 1-oxide], the inhibition constant (Ki) came to 0.17 nM in assay [1] and 1.21 nM in assay [2].

Consider `O=C1CCCCC(c2ccc(-c3cc(F)ccc3-n3cnnn3)c[n+]2[O-])c2cccc(c2)-c2cc(F)ccc2N1` (single isomer, unassigned) [Example 89-a, 5-(5-fluoro-2-(1H-tetrazol-1-yl)phenyl)-2-(2^5-fluoro-4-oxo-3-aza-1(1,3),2(1,2)-dibenzenacyclononaphane-9-yl)pyridine 1-oxide], for which the results for the Ki in assay [1] and in assay [2] were 0.39 nM and 13.6 nM, respectively.

`O=C1CCCC[C@H](c2ccc(-c3c(F)ccc(Cl)c3F)c[n+]2[O-])c2cccc(c2)-c2ccc(Nc3cccnc3)cc2N1` [Example 47, 5-(3-chloro-2,6-difluorophenyl)-2-(4-oxo-2^4-(pyridin-3-ylamino)-3-aza-1(1,3),2(1,2)-dinenzenacyclononaphane-9-yl)pyridine 1-oxide]: the Ki in assay [1] came to 1.89 nM; in assay [2], 5.01 nM.

With `Cc1[nH]c2nc1-c1cc(F)ccc1NC(=O)CCCC[C@@H]2c1ccc(-c2cc(F)ccc2-n2cnnn2)c[n+]1[O-]` (single isomer, unassigned) [Example 142], the Ki in assay [1] worked out at 0.47 nM; in assay [2] it was 56.7 nM.

Turning to `COC(=O)Nc1ccc2c(c1)NC(=O)CCCCC(c1ccc(-c3c(F)cccc3OC(F)F)c[n+]1[O-])c1nc-2c[nH]1` (single isomer, unassigned) [Example 101-a, (Z)-5-(2-(Difluoromethoxy)-6-fluorophenyl)-2-(2^4-((methoxycarbonyl)amino)-4-oxo-1^1H-3-aza-1(4,2)-imidazola-2(1,2) -benzenacyclononaphane-9-yl)pyridine 1-oxide], the Ki in assay [1] is 0.34 nM; in assay [2], 3.9 nM.

On to `CC(C)(C)OCCOC(=O)Nc1ccc2c(c1)NC(=O)CCCC[C@H](c1ccc(-c3c(F)ccc(Cl)c3F)c[n+]1[O-])c1cccc-2c1` [Example 45, (S)-2-(2^4-(((2-(tert-butoxy)ethoxy)carbonyl)amino)-4-oxo-3-aza-1(1,3),2(1,2)-dinenzenacyclononaphane-9-yl)-5-(3-chloro-2,6-difluorophenyl)pyridine 1-oxide], for which the results for the Ki in assay [1] and in assay [2] were 0.24 nM and 0.44 nM, respectively.

With `COC(=O)Nc1ccc2c(c1)NC(=O)CCCC[C@H](c1ccc(-c3cc(Cl)ccc3-n3cc(C#N)cn3)c[n+]1[O-])c1cccc-2c1` (single isomer, unassigned) [Example 41], the values for the Ki in assay [1] and in assay [2] were 0.19 nM and 6.27 nM, respectively.

Turning to `CCc1[nH]c2nc1-c1ccc(NC(=O)OC)cc1NC(=O)CCCC[C@@H]2c1ccc(-c2cc(F)ccc2OC(F)(F)F)c[n+]1[O-]` (single isomer, unassigned) [Example 133], the Ki in assay [1] was 0.46 nM; in assay [2] it was 5.08 nM.

In the case of `O=C1CCCCC(c2ccc(-c3cc(Cl)ccc3-n3cnnn3)c[n+]2[O-])c2nc(c[nH]2)-c2cc(F)ccc2N1` (single isomer, unassigned) [Example 11-a, (Z)-5-(5-Chloro-2-(1H-tetrazol-1-yl)phenyl)-2-(2^5-fluoro-4-oxo-1^1h-3-aza-1(4,2)-imidazola-2(1,2)-benzenacyclononaphane-9-yl)pyridine 1-oxide], the Ki was 0.22 nM in assay [1] and 2.12 nM in assay [2].

In the case of `N#Cc1cnn(-c2ccc(Cl)cc2-c2ccc([C@H]3CCCCC(=O)Nc4cnn(C(F)F)c4-c4cccc3c4)[n+]([O-])c2)c1` (single isomer, unassigned) [Example 169], the Ki worked out at 3.8 nM in assay [1] and 94.2 nM in assay [2].

For “2-(2^5-carboxy-4-oxo-3-aza- 1(1,3),2(1,2)- dibenzenacyclononaphane-9-yl)-5- (3-chloro-2,6-difluorophenyl)pyridine 1-oxide [Example 9]”, the Ki in assay [1] was 13.6 nM; in assay [2] it was 379 nM.

As for `COC(=O)Nc1ccc2c(c1)NC(=O)CCCC[C@H](c1ccc(-c3ccccc3C(F)(F)F)c[n+]1[O-])c1nc-2c(C)[nH]1` (single isomer, unassigned) [Example 121], the Ki in assay [1] turned out to be 0.43 nM; in assay [2], 3.9 nM.

For the compound `COC(=O)Nc1ccc2c(c1)NC(=O)CCCCC(c1ccc(-c3cc(Cl)ccc3-n3cnnn3)cn1)c1cc(F)cc-2c1` (stereo not shown) [Example 51, Methyl (9-(5-(5-chloro-2-(1H-tetrazol-1-yl)phenyl)pyridin-2-yl)-1^5-fluoro-4-oxo-3-aza-1(1,3),2(1,2)-dinenzenacyclononaphane-2^4-yl)carbamate], the Ki was determined as 2.76 nM in assay [1] and 46.6 nM in assay [2].

`COC(=O)Nc1ccc2c(c1)NC(=O)CCCCC(c1ccc(-c3c(F)ccc(Cl)c3F)c[n+]1[O-])c1cc[n+]([O-])c-2c1` (stereo not shown) [Example 94, 9-(5-(3-Chloro-2,6-difluorophenyl)-1-oxidopyridin-2-yl)-2^4-((methoxycarbonyl)amino)-4-oxo-3-aza-1(2,4)-pyridin-1-iuma-2(1,2) -benzenacyclononaphane 1-oxide]: the Ki in assay [1] was 5.1 nM; in assay [2] it was 11.3 nM.

With `COC(=O)Nc1ccc2c(c1)NC(=O)CCCCC(c1ccc(-c3cc(Cl)ccc3-n3cnnn3)cn1)c1cc-2ncc1F` (stereo not shown) [Example 57, methyl (9-(5-(5-chloro-2-(1h-tetrazol-1-yl)phenyl)pyridin-2-yl)-1^5-fluoro-4-oxo-3-aza-1(2,4)-pyridina-2(1,2)-benzenacyclononaphane-2^4-yl)carbamate], the figures for the Ki in assay [1] and in assay [2] were 0.52 nM and 12.1 nM, respectively.

On to `COC(=O)Nc1ccc2c(c1)NC(=O)CCCC[C@H](c1ccc(-c3c(F)ccc(Cl)c3F)c[n+]1[O-])c1cc-2ncn1` (single isomer, unassigned) [Example 75], for which the Ki in assay [1] is 2.7 nM; in assay [2], 8.42 nM.

`COC(=O)Nc1ccc2c(c1)NC(=O)CCCC[C@H](c1ccc(-c3cc(Cl)ccc3-c3cnco3)c[n+]1[O-])c1cccc-2c1` (single isomer, unassigned) [Example 35]: the affinity in assay [2], expressed as Ki, was 0.7 nM.

`CCc1[nH]c2nc1-c1ccc(NC(=O)OC)cc1NC(=O)[C@H](C)CCC[C@@H]2c1ccc(-c2c(F)cccc2OC(F)F)c[n+]1[O-]` (single isomer, unassigned) [Example 146-a]: in assay [2], affinity was put at a Ki of 0.71 nM.

As to `COC(=O)Nc1ccc2c(c1)NC(=O)[C@@H](C)CCC[C@H](c1ccc(-c3c(OC(F)F)ccc(F)c3F)c[n+]1[O-])c1nc-2c(C)[nH]1` (single isomer, unassigned) [Example 150-c], in assay [2], the Ki turned out to be 1.5 nM.

For `COC(=O)Nc1ccc2c(c1)NC(=O)CCCC[C@H](c1ccc(-c3c(F)ccc(Cl)c3F)c[n+]1[O-])c1ccc(F)c-2c1` (single isomer, unassigned) [Example 68], in assay [2], the Ki was found to be 2.09 nM.

In assay [2], `COC(=O)Nc1ccc2c(c1)NC(=O)CC[C@@H](C)C[C@H](c1ccc(-c3c(F)ccc(Cl)c3F)c[n+]1[O-])c1nc-2c(C)[nH]1` (single isomer, unassigned) [Example 151-a] returned a Ki of 0.16 nM.

In assay [2], `COC(=O)Nc1ccc2c(c1)NC(=O)CCCCC(c1ccc(-c3c(F)cccc3OC(F)(F)F)c[n+]1[O-])c1nc-2c(C)[nH]1` (single isomer, unassigned) [Example 131] had a Ki of 5.32 nM.

Consider `COC(=O)Nc1ccc2c(c1)NC(=O)[C@@H](C)CCC[C@H](c1ccc(-c3cc(Cl)ccc3OC(F)(F)F)c[n+]1[O-])c1cccc-2c1` (single isomer, unassigned) [Example 77-b], for which, in assay [2], the affinity, expressed as Ki, was 17.3 nM.

In assay [2], `COC(=O)Nc1ccc2c(c1)NC(=O)CCCC[C@H](c1ccc(-c3c(F)cccc3OC(F)F)c[n+]1[O-])c1nc-2c(C)[nH]1` (single isomer, unassigned) [Example 126] registered a Ki of 2.03 nM.
